Data reported in patent US11076595B2, “1-(n,n-disubstituted carbamoyl) 4-(substituted sulfonyl)triazolin-5-one derivative, 4-(n,n-disubstituted carbamoyl) 1-(substituted sulfonyl)triazolin-5-one derivative, and herbicide containing said derivative as active ingredient” (HOKKO CHEMICAL INDUSTRY CO., LTD., priority 2017, dated 2021).

Columns and labels:
Format in all cases: in vivo
Scirpus juncoides [1] = assay: Test Example 12: herbicidal effect test by treatment during growing period in paddy field; conditions: 120 g/10a; treatment seven days after sowing in flooded paddy pot; assessed 14 days after treatment
Summary of the method: (§1)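 Paddy soil + NPK 17:17:17, puddled; 30 seeds/species sown 0–1 cm; flooded ~3 cm, greenhouse. Day 7 post-sowing: EC diluted in water, applied dropwise into water, 120 g a.i./10 are. Day 14 post-treatment: dry weight vs untreated → % suppression; n=2.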

Echinochloa crus-galli [2] = assay: as above; conditions: 120 g/10a; treatment seven days after sowing in flooded paddy pot; assessed 14 days after treatment
Summary of the method: as §1

Lindernia pyxidaria [3] = assay: as above; conditions: 120 g/10a; treatment seven days after sowing in flooded paddy pot; assessed 14 days after treatment
Summary of the method: as §1

Monochoria vaginalis [4] = assay: as above; conditions: 120 g/10a; treatment seven days after sowing in flooded paddy pot; assessed 14 days after treatment
Summary of the method: as §1

Amaranthus viridis [5] = assay: Test Example 14: herbicidal effect test by foliage treatment in upland field; conditions: 7 days after sowing, 120 g/10a, 14 days after treatment
Summary of the method: (§2)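 Emulsifiable concentrate, water-diluted, is applied post-emergence to 7-day-old sowings in field soil at 120 g active ingredient per 10 are. The weed suppression rate derives from average dry weights versus untreated controls, measured 14 days later.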

Echinochloa crus-galli [6] = assay: as above; conditions: 7 days after sowing, 120 g/10a, 14 days after treatment
Summary of the method: as §2

Scirpus juncoides [7] = assay: Test Example 11: herbicidal effect test by soil treatment in paddy field; conditions: 120 g/10a active ingredient, 14 days after treatment
Summary of the method: (§3)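 Pre-emergence flooded-paddy test: the water-diluted emulsifiable concentrate, 120 g active ingredient per 10 are, was dripped into pots immediately after seeding, with water held at about 3 cm. Two replicate pots per rate; 14 days after treatment, plant dry weight versus untreated pots gave the weed suppression rate.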

Echinochloa crus-galli [8] = assay: as above; conditions: 120 g/10a active ingredient, 14 days after treatment
Summary of the method: as §3

Lindernia pyxidaria [9] = assay: as above; conditions: 120 g/10a active ingredient, 14 days after treatment
Summary of the method: as §3

Monochoria vaginalis [10] = assay: as above; conditions: 120 g/10a active ingredient, 14 days after treatment
Summary of the method: as §3

crabgrass [11] = assay: Test Example 14: herbicidal effect test by foliage treatment in upland field; conditions: 7 days after sowing, 120 g/10a, 14 days after treatment
Summary of the method: as §2

Chenopodium album [12] = assay: as above; conditions: 7 days after sowing, 120 g/10a, 14 days after treatment
Summary of the method: as §2

Amaranthus viridis [13] = assay: Test Example 13: herbicidal effect test by soil treatment in upland field; conditions: 120 g/10a, 14 days after treatment
Protocol: (§4) A pot having a size of 36 cm^2 was filled with field soil (alluvial soil) and after mixing the soil of the surface layer of 1 cm with 20 grains of each weed seed of crabgrass, Echinochloa crus-galli, Chenopodium album and Amaranthus viridis, the surface layer was pressed lightly. One day after the sowing, an emulsifiable concentrate prepared according to Formulation Example 15 by using the compound shown in Table 11 below was diluted with water, and the water-diluted formulation was sprayed on the soil surface at a ratio of 100 liter per 10 are. The application rate of the active ingredient, by conversion, corresponded to 120 g per 10 are. Fourteen Days after the formulation treatment, the herbicidal effect was evaluated by the same criteria as in Test Example 11.

Echinochloa crus-galli [14] = assay: as above; conditions: 120 g/10a, 14 days after treatment
Protocol: as §4

crabgrass [15] = assay: as above; conditions: 120 g/10a, 14 days after treatment
Protocol: as §4

Chenopodium album [16] = assay: as above; conditions: 120 g/10a, 14 days after treatment
Protocol: as §4

Compound	Weed suppression rate (%) Scirpus juncoides (Scirpus juncoides [1]) [%]	Weed suppression rate (%) Echinochloa crus-galli (Echinochloa crus-galli [2]) [%]	Weed suppression rate (%) Lindemia pyxidaria (Lindernia pyxidaria [3]) [%]	Weed suppression rate (%) Monochoria vaginalis (Monochoria vaginalis [4]) [%]	herbicidal effect, Amaranthus viridis (Amaranthus viridis [5]) [%]	herbicidal effect, Echinochloa crus-galli (Echinochloa crus-galli [6]) [%]	Weed suppression rate (%) Scirpus juncoides (Scirpus juncoides [7]) [%]	Weed suppression rate (%) Echinochloa crus-galli (Echinochloa crus-galli [8]) [%]	Weed suppression rate (%) Lindemia pyxidaria (Lindernia pyxidaria [9]) [%]	Weed suppression rate (%) Monochoria vaginalis (Monochoria vaginalis [10]) [%]	herbicidal effect, Crabgrass (crabgrass [11]) [%]	herbicidal effect, Chenopodium album (Chenopodium album [12]) [%]	herbicidal effect, Amaranthus viridis (Amaranthus viridis [13]) [%]	herbicidal effect, Echinochloa crus-galli (Echinochloa crus-galli [14]) [%]	herbicidal effect, Crabgrass (crabgrass [15]) [%]	herbicidal effect, Chenopodium album (Chenopodium album [16]) [%]
CC(C)N(C(=O)n1cnn(S(=O)(=O)C2CCCCC2)c1=O)c1c(F)cc(F)cc1F [Compound 11-298]	100	100	80	80	60	100	100	100	100	100	100	70	60	100	100	60
Cc1cc(C)c(S(=O)(=O)n2ncn(C(=O)N(c3ccccc3)C(C)C)c2=O)c(C)c1 [Compound 11-852]	90	80	90	90	60	60	90	100	90	90	90	70	60	80	80	60
CC(C)N(C(=O)n1cnn(S(=O)(=O)C2CC2)c1=O)c1ccccc1 [Compound 11-159]	80	90	70	90	90	80	90	90	80	80	90	80	90	80	90	80
Cc1ccc(S(=O)(=O)n2ncn(C(=O)N(c3ccc(F)cc3F)C(C)C)c2=O)cc1 [Compound 11-637]	90	100	90	90	0	80	90	100	100	100	80	0	40	100	90	40
CCN(CC)C(=O)n1cnn(S(=O)(=O)c2ccccc2Cl)c1=O [Compound 11-500]	60	80	60	60	40	40	50	90	50	50	40	50	0	80	80	0
CC(C)N(C(=O)n1cnn(S(=O)(=O)N(C)C)c1=O)c1ccc(F)cc1F [Compound 11-1064]	90	100	90	90	70	90	100	100	100	100	90	80	90	100	100	90
Cc1ccccc1S(=O)(=O)n1ncn(C(=O)N(c2ccc(F)cc2F)C(C)C)c1=O [Compound 11-623]	90	100	100	100	40	80	90	100	100	90	60	40	0	100	90	0
CC(C)N(C(=O)n1cnn(S(=O)(=O)c2cccs2)c1=O)c1cccc(F)c1F [Compound 11-1021]	100	100	80	90			100	100	100	100			70	90	100	70
CC(C)N(C(=O)n1cnn(S(=O)(=O)Cc2ccccc2)c1=O)c1ccc(F)cc1F [Compound 11-944]	90	90	90	90			90	90	100	100			0	90	90	0
CC(C)N(C(=O)n1cnn(S(=O)(=O)c2ccc(Br)cc2)c1=O)c1ccc(F)cc1F [Compound 11-616]	60	50	80	80			90	90	90	90			80	80	40	80
CCc1ccc(S(=O)(=O)n2ncn(C(=O)N(CC)CC)c2=O)cc1 [Compound 11-665]	60	90	60	60			40	80	40	40			0	80	80	0
